Bounds are passed on as bounds.

This passage reports Kd results from patent publication US20240109865A1, “INDAZOLE COMPOUNDS AS KINASE INHIBITORS” (TYRA BIOSCIENCES, INC., priority 2020, published 2024).

Common to all, as to test: Kinase assay, binding constants (Kd), kinase-tagged T7 phage, qPCR
(In general: Quantitative PCR measures a nucleic acid by following its amplification.)

For one assay, the target named is FGFR1 (Homo sapiens (Human), UniProt P11362). In a few lines:
(§1)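 Using T7 phage lysates from BL21-derived E. coli, compounds at 0.9% final DMSO competed for kinase binding to ligand-bearing magnetic beads. After elution, qPCR measured remaining kinase, and Kds were fitted by non-linear least squares with the Hill slope fixed at −1.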

For another assay, the target named is FGFR3 (Homo sapiens (Human), UniProt P22607). In outline:
as §1

The next assay addresses FGFR2 (Homo sapiens (Human), UniProt P21802). In a few lines:
as §1

A further assay has as its target FGFR4 (Homo sapiens (Human), UniProt P22455). In outline:
as §1

A further assay addresses FGFR3 (V555M) (Homo sapiens (Human), UniProt P22607, V555M). The following applies: V555M mutant. In outline:
as §1

Chain of FGFR1 (P11362 22-822): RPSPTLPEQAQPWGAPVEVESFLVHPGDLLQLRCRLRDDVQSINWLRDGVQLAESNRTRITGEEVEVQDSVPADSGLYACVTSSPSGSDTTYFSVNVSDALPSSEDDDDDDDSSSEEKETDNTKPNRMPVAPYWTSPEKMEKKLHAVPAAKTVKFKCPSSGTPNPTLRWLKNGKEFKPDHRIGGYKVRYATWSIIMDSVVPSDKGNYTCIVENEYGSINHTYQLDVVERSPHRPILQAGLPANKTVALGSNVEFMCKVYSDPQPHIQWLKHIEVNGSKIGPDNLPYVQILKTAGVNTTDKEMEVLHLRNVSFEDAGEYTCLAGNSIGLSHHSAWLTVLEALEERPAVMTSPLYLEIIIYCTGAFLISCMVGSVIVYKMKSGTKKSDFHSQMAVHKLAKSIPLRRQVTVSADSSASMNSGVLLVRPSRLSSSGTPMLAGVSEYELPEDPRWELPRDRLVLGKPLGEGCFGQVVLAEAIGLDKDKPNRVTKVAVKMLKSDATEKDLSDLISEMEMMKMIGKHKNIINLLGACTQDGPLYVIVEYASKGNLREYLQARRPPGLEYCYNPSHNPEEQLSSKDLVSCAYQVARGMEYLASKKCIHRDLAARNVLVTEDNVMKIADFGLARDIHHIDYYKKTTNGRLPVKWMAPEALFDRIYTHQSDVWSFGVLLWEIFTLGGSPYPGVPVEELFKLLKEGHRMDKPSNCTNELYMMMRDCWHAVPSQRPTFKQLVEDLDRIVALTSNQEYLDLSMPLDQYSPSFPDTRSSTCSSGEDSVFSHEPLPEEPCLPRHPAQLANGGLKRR
Chain of FGFR4 (P22455 22-802): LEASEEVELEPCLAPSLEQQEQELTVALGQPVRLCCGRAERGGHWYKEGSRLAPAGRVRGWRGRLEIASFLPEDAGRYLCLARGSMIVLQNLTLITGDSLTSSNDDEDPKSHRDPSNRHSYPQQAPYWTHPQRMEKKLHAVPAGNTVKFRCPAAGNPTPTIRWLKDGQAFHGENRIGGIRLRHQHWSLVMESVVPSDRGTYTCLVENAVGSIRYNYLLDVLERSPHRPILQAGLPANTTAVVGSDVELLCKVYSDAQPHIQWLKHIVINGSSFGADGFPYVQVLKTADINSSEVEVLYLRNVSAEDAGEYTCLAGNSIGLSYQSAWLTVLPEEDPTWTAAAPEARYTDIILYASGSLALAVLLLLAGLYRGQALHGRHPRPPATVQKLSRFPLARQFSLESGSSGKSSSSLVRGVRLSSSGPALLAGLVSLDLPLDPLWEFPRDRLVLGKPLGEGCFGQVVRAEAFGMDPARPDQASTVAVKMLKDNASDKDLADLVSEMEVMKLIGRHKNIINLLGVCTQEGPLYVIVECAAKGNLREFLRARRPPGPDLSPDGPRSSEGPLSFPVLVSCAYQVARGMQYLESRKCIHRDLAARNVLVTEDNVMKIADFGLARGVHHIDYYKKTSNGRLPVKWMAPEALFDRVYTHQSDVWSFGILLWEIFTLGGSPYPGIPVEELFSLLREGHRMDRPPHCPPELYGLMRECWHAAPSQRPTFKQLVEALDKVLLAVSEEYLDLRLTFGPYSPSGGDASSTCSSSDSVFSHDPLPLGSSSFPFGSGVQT
Chain of FGFR3 (V555M) (P22607 23-806 V555M): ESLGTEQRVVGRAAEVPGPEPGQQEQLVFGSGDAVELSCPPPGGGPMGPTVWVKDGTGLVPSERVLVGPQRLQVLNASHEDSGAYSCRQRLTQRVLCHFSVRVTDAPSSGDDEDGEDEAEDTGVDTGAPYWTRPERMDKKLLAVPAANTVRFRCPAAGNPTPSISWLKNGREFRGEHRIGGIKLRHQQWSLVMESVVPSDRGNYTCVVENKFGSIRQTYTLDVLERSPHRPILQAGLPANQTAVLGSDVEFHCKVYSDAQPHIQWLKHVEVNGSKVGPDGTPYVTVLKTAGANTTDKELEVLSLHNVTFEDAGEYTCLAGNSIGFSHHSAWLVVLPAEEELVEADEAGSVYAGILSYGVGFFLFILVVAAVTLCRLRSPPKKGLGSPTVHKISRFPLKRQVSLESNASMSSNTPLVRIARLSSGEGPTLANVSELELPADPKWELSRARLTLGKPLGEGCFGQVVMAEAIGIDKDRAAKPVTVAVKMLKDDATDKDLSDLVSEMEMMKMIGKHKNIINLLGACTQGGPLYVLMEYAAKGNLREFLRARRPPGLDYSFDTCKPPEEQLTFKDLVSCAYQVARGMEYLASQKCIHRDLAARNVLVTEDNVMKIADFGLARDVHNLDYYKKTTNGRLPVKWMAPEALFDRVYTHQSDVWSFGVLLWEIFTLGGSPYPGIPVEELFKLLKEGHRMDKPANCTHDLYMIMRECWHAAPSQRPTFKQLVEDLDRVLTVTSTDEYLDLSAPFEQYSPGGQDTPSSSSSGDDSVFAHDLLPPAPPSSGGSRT
Chain of FGFR2 (P21802 22-821): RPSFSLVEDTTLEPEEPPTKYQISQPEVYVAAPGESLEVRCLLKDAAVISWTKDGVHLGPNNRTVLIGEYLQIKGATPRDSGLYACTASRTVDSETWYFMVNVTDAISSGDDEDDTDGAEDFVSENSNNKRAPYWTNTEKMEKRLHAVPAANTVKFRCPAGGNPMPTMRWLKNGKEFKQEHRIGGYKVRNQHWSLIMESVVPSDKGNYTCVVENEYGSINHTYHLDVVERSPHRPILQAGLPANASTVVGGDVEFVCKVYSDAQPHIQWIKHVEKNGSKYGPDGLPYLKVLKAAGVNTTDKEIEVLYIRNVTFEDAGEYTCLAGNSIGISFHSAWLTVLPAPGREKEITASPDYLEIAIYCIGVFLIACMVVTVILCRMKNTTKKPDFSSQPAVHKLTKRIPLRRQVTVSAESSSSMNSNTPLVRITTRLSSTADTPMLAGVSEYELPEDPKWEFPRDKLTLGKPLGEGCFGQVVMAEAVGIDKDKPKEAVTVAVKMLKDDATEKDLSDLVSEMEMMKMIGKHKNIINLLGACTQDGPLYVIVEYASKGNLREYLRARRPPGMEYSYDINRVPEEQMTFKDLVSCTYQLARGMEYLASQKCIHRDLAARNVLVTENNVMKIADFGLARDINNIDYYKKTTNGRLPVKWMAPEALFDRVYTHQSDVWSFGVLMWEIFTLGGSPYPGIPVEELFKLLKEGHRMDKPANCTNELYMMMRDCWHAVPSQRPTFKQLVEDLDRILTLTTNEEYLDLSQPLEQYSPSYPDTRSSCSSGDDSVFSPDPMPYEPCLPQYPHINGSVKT
Chain of FGFR3 (P22607 23-806): as the sequence (P22607 23-806 V555M) above, with M533V counted along it

A word on the Kd: it is a measure of binding affinity in units of concentration. A lower Kd goes with higher affinity. Take `COc1cc2[nH]nc(-c3ccc(N4CCN5C(=O)NCC5C4)nc3)c2cc1O[C@H](C)c1c(C)cnnc1C` (stereo partly drawn) [Example 228, 7-(5-(5-((R)-1-(3,5-dimethylpyridazin-4-yl)ethoxy)-6-methoxy-1H-indazol-3-yl)pyridin-2-yl)hexahydroimidazo[1,5-a]pyrazin-3(2H)-one]: the Kd on FGFR1, at FGFR3, at FGFR2, at FGFR4 and at FGFR3 (V555M) was 1 to 20 nM throughout.

`C[C@@H](Oc1ccc2[nH]nc(-c3ccc(N4CC5(COC5)C4)nc3)c2c1)c1c(Cl)cnnc1Cl` [Example 229, (R)-6-(5-(5-(1-(3,5-dichloropyridazin-4-yl)ethoxy)-1H-indazol-3-yl)pyridin-2-yl)-2-oxa-6-azaspiro[3.3]heptane]: the Kd was over 300 nM at FGFR1; 20 to 100 nM on FGFR3; 100 to 300 nM on FGFR2; over 300 nM on FGFR4; 20 to 100 nM at FGFR3 (V555M).

As to `C[C@@H](Oc1ccc2[nH]nc(-c3ccc(N4CC5(CN(CC(F)F)C5)C4)nc3)c2c1)c1c(Cl)cncc1Cl` [Example 230, (R)-5-(1-(3,5-dichloropyridin-4-yl)ethoxy)-3-(6-(6-(2,2-difluoroethyl)-2,6-diazaspiro[3.3]heptan-2-yl)pyridin-3-yl)-1H-indazole], the Kd on FGFR1, on FGFR3, at FGFR2, at FGFR4 and on FGFR3 (V555M) was 1 to 20 nM each time.

Take `Cc1cc(-c2n[nH]c3ccc(O[C@H](C)c4c(C)cnnc4C)cc23)cnc1N1CCN2C(=O)NCC2C1` (stereo partly drawn) [Example 231, 7-(5-(5-((R)-1-(3,5-dimethylpyridazin-4-yl)ethoxy)-1H-indazol-3-yl)-3-methylpyridin-2-yl)hexahydroimidazo[1,5-a]pyrazin-3(2H)-one]: the Kd is 20 to 100 nM at FGFR1; 1 to 20 nM at FGFR3; 1 to 20 nM on FGFR2; 1 to 20 nM on FGFR4; 1 to 20 nM at FGFR3 (V555M).

With `Cc1ncc(Cl)c([C@@H](C)Oc2ccc3[nH]nc(-c4ccc(N5CCC[C@@H]5CO)nc4)c3c2)c1Cl` [Example 232, [(2R)-1-[5-[5-[(1R)-1-(3,5-dichloro-2-methyl-4-pyridyl)ethoxy]-1H-indazol-3-yl]-2-pyridyl]pyrrolidin-2-yl]methanol], the Kd lay in the range of 20 to 100 nM on FGFR1; 1 to 20 nM at FGFR3; 20 to 100 nM at FGFR2; 1 to 20 nM at FGFR4; 1 to 20 nM at FGFR3 (V555M).

In the case of `C[C@@H](Oc1ccc2[nH]nc(-c3ccc(N4CC5(C4)CN(S(C)(=O)=O)C5)nc3)c2c1)c1c(Cl)cnnc1Cl` [Example 233, (R)-5-(1-(3,5-dichloropyridazin-4-yl)ethoxy)-3-(6-(6-(methylsulfonyl)-2,6-diazaspiro[3.3]heptan-2-yl)pyridin-3-yl)-1H-indazole], the Kd is over 300 nM at FGFR1; 20 to 100 nM at FGFR3; 100 to 300 nM at FGFR2; over 300 nM at FGFR4; 20 to 100 nM on FGFR3 (V555M).

Regarding `Cc1cc(-c2n[nH]c3ccc(O[C@H](C)c4c(Cl)cnc(C)c4Cl)cc23)cnc1N1CC(CO)(CO)C1` [Example 234, [1-[5-[5-[(1R)-1-(3,5-dichloro-2-methyl-4-pyridyl)ethoxy]-1H-indazol-3-yl]-3-methyl-2-pyridyl]-3-(hydroxymethyl)azetidin-3-yl]methanol], the Kd at FGFR1 lay in the range of 100 to 300 nM; at FGFR3, 1 to 20 nM; on FGFR2, 100 to 300 nM; at FGFR4, 1 to 20 nM; on FGFR3 (V555M) it was 1 to 20 nM.

`Cc1cc(-c2n[nH]c3ccc(O[C@H](C)c4c(Cl)cnc(C)c4Cl)cc23)cnc1N1CC2(C1)CN(S(C)(=O)=O)C2` [Example 235, 5-[(1R)-1-(3,5-dichloro-2-methyl-4-pyridyl)ethoxy]-3-[5-methyl-6-(2-methylsulfonyl-2,6-diazaspiro[3.3]heptan-6-yl)-3-pyridyl]-1H-indazole]: the Kd on FGFR1 lay within 100 to 300 nM; at FGFR3, 1 to 20 nM; at FGFR2, 100 to 300 nM; at FGFR4, 1 to 20 nM; at FGFR3 (V555M), 1 to 20 nM.

Take `C[C@@H](Oc1ccc2[nH]nc(-c3ccc(N4CCC[C@@H]4CO)nc3)c2c1)c1c(Cl)cncc1Cl` [Example 236, ((R)-1-(5-(5-((R)-1-(3,5-dichloropyridin-4-yl)ethoxy)-1H-indazol-3-yl)pyridin-2-yl)pyrrolidin-2-yl)methanol]: the Kd is 20 to 100 nM at FGFR1; 1 to 20 nM at FGFR3; 1 to 20 nM on FGFR2; 1 to 20 nM on FGFR4; 1 to 20 nM on FGFR3 (V555M).

Consider `C[C@@H](Oc1ccc2[nH]nc(-c3ccc(N4CCC[C@H]4CO)nc3)c2c1)c1c(Cl)cncc1Cl` [Example 237, ((S)-1-(5-(5-((R)-1-(3,5-dichloropyridin-4-yl)ethoxy)-1H-indazol-3-yl)pyridin-2-yl)pyrrolidin-2-yl)methanol], for which the Kd on FGFR1, on FGFR3, on FGFR2, on FGFR4 and at FGFR3 (V555M) was 1 to 20 nM each time.

With `COC1CC2(C1)CN(c1ccc(-c3n[nH]c4ccc(O[C@H](C)c5c(Cl)cnc(C)c5Cl)cc34)cn1)C2` [Example 238, 5-[(1R)-1-(3,5-dichloro-2-methyl-4-pyridyl)ethoxy]-3-[6-(6-methoxy-2-azaspiro[3.3]heptan-2-yl)-3-pyridyl]-1H-indazole], the Kd at FGFR1 is 20 to 100 nM; at FGFR3, 1 to 20 nM; on FGFR2, 20 to 100 nM; at FGFR4, 1 to 20 nM; at FGFR3 (V555M) it was 1 to 20 nM.

As to `COc1cc2[nH]nc(-c3cnc(N4CC5(C4)CN(S(C)(=O)=O)C5)nc3)c2cc1O[C@H](C)c1c(Cl)cncc1Cl` [Example 239, 5-[(1R)-1-(3,5-dichloro-4-pyridyl)ethoxy]-6-methoxy-3-[2-(2-methylsulfonyl-2,6-diazaspiro[3.3]heptan-6-yl)pyrimidin-5-yl]-1H-indazole], the Kd on FGFR1, on FGFR3, at FGFR2, on FGFR4 and on FGFR3 (V555M) was 1 to 20 nM each time.

On to `COc1cc2[nH]nc(-c3cnc(N4CC5(C4)CN(S(C)(=O)=O)C5)nc3)c2cc1O[C@H](C)c1c(Cl)cnc(C)c1Cl` [Example 240, 5-[(1R)-1-(3,5-dichloro-2-methyl-4-pyridyl)ethoxy]-6-methoxy-3-[2-(2-methylsulfonyl-2,6-diazaspiro[3.3]heptan-6-yl)pyrimidin-5-yl]-1H-indazole], for which the Kd at FGFR1, on FGFR3, on FGFR2, at FGFR4 and at FGFR3 (V555M) was 1 to 20 nM throughout.

In the case of `Cc1ncc(Cl)c([C@@H](C)Oc2ccc3[nH]nc(-c4ccc(N5CCC[C@H]5CO)nc4)c3c2)c1Cl` [Example 241, [(2S)-1-[5-[5-[(1R)-1-(3,5-dichloro-2-methyl-4-pyridyl)ethoxy]-1H-indazol-3-yl]-2-pyridyl]pyrrolidin-2-yl]methanol], the Kd is 1 to 20 nM at FGFR1; 1 to 20 nM on FGFR3; 20 to 100 nM at FGFR2; 1 to 20 nM on FGFR4; 1 to 20 nM at FGFR3 (V555M).

`COc1cc2[nH]nc(-c3cnc(N4CC5(C4)CN(S(C)(=O)=O)C5)c(F)c3)c2cc1O[C@H](C)c1c(Cl)cncc1Cl` [Example 242, 5-[(1R)-1-(3,5-dichloro-4-pyridyl)ethoxy]-3-[5-fluoro-6-(2-methylsulfonyl-2,6-diazaspiro[3.3]heptan-6-yl)-3-pyridyl]-6-methoxy-1H-indazole]: the Kd at FGFR1, at FGFR3, at FGFR2, at FGFR4 and at FGFR3 (V555M) was 1 to 20 nM each time.

Regarding `COc1cc2[nH]nc(-c3cnc(N4CC5(C4)CN(S(C)(=O)=O)C5)c(F)c3)c2cc1O[C@H](C)c1c(Cl)cnc(C)c1Cl` [Example 243, 5-[(1R)-1-(3,5-dichloro-2-methyl-4-pyridyl)ethoxy]-3-[5-fluoro-6-(2-methylsulfonyl-2,6-diazaspiro[3.3]heptan-6-yl)-3-pyridyl]-6-methoxy-1H-indazole], the Kd on FGFR1, on FGFR3, on FGFR2, on FGFR4 and at FGFR3 (V555M) was 1 to 20 nM in each case.

Consider `Cc1ncc(Cl)c([C@@H](C)Oc2ccc3[nH]nc(-c4cnc(N5CC6(C5)CN(S(C)(=O)=O)C6)c(F)c4)c3c2)c1Cl` [Example 244, 5-[(1R)-1-(3,5-dichloro-2-methyl-4-pyridyl)ethoxy]-3-[5-fluoro-6-(2-methylsulfonyl-2,6-diazaspiro[3.3]heptan-6-yl)-3-pyridyl]-1H-indazole], for which the Kd lay in the range of 20 to 100 nM on FGFR1; 1 to 20 nM at FGFR3; 20 to 100 nM at FGFR2; 1 to 20 nM at FGFR4; 1 to 20 nM at FGFR3 (V555M).

Turning to `C[C@@H](Oc1ccc2[nH]nc(-c3ccc(N4CC5(CN(C(=O)C(F)(F)F)C5)C4)nc3)c2c1)c1c(Cl)cncc1Cl` [Example 245, 1-[6-[5-[5-[(1R)-1-(3,5-dichloro-4-pyridyl)ethoxy]-1H-indazol-3-yl]-2-pyridyl]-2,6-diazaspiro[3.3]heptan-2-yl]-2,2,2-trifluoro-ethanone], the Kd at FGFR1, at FGFR3, at FGFR2, on FGFR4 and at FGFR3 (V555M) was 1 to 20 nM throughout.

`C[C@@H](Oc1ccc2[nH]nc(-c3ccc(N4CC5(C4)CN(S(C)(=O)=O)C5)nc3)c2c1)c1c(Cl)cnnc1Cl` [Example 246, (R)-5-(1-(3,5-dichloropyridazin-4-yl)ethoxy)-3-(6-(6-(methylsulfonyl)-2,6-diazaspiro[3.3]heptan-2-yl)pyridin-3-yl)-1H-indazole]: the Kd on FGFR1, on FGFR3, at FGFR2, at FGFR4 and at FGFR3 (V555M) was 1 to 20 nM throughout.
